Results as given in patent US11040967B2, “TYK2 inhibitors, uses, and methods for production thereof” (Nimbus Lakshmi, Inc., priority 2017, dated 2021).

Key:
[1] = Solid form stability of Compound 1 mesylate forms; assay type: physicochemical
[2] = Dissolution Assay in Fasted Simulated Gastric Fluid; assay type: physicochemical; conditions: Fasted Simulated Gastric Fluid (FaSSGF), 37° C.
Experimental: The dissolution bath was filled with 900 mL of media for testing, the bath temperature held at 37° C., the rotation rate of the apparatus was 50 rpm, the draw point for the sampling probe was set exactly halfway between the surface of the media and the surface of the disc. The test article (0.4 g) was compressed into a disc using a Woods apparatus. The sampling time points were 10, 30, 60, 90, 120, 150 & 180. The samples were analysed by HPLC for concentration against a sample preparation of known concentration (ca. 0.5 mg/ml). Dissolution rate was derived from the curve of concentration against time.

Question: For `CS(=O)(=O)O.O=C1NCc2nc(-c3c(F)cccc3F)cc(Nc3ccc(C(=O)N4CCCC4)cc3)c21` [Form V], which solid form stability ([1]; upon grinding) is on record?
Answer: transition to Form I

Question: With `CS(=O)(=O)O.O=C1NCc2nc(-c3c(F)cccc3F)cc(Nc3ccc(C(=O)N4CCCC4)cc3)c21` [Form III] as the compound, how does the solid form stability ([1]; upon drying under ambient conditions) read?
Answer: transition to Form IV

Question: With `CS(=O)(=O)O.O=C1NCc2nc(-c3c(F)cccc3F)cc(Nc3ccc(C(=O)N4CCCC4)cc3)c21` [Form IV] as the compound, how does the solid form stability ([1]; ambient conditions) read?
Answer: stable at ambient conditions

Question: With `O=C1NCc2nc(-c3c(F)cccc3F)cc(Nc3ccc(C(=O)N4CCOCC4)cc3)c21` [Compound 9] as the compound, how does the dissolution rate [2] read?
Answer: 21.2 μg/cm^2/min

Question: Which dissolution rate [2] does the source give for `O=C1NCc2nc(-c3c(F)cccc3F)cc(Nc3ccc(C(=O)N4CCCC4)cc3)c21` [Compound 1] here?
Answer: 57.5 μg/cm^2/min
